Key:
Hippo pathway = Hippo pathway luciferase reporter in 293 cells; assay type: cell-based; conditions: 24 hours
Procedure: (§1) FIGS. 1A-1C. CPADAML16 is a common inhibitor of Wnt (FIG. 1C), TGF beta (FIG. 1B), and Hippo (FIG. 1A). 293 cells were transfected with luciferase reporters corresponding to each pathway and then exposed to CPADAML16, the Wnt inhibitor Pyrvinium (PYR) or the TGF beta inhibitor SB-431 at the indicated concentrations. After 24 hours, the cells were lysed and luciferase activity measured. Data represents average of three replicates ±SE.
The present disclosure concerns the discovery of small molecules inhibitors of major EMT pathways particularly those mediated by TGF beta, Wnt and Hippo. These pathways are known to play key roles in the induction of epithelial-mesenchymal transition (EMT) a cellular process responsible for cancer metastasis, resistance to therapy and organ fibrosis. […] In a search for putative inhibitors of the Hippo pathway, a luciferase reporter system was used to screen a series of chemical compounds. […] CPADAML16 suppressed cancer cell ability to undergo EMT, to proliferate and to become drug resistant. Investigation of the underlying mechanism led to the finding that CPADAML16 induces degradation of the Hippo transducer TAZ mainly by activating AMPK upstream of the GSK3 beta associated degradation complex. CPADAML16 exerted a strong anti-tumor activity in a xenograft mice model with no noticeable toxicity. […]

Wnt signaling = assay: Wnt pathway luciferase reporter in 293 cells; assay type: cell-based; conditions: 24 hours
Procedure: as §1
(§2) By comparison, none of Wnt or TGF beta inhibitors had affected the Hippo pathway reporter. Based on this, CPADAML16 may represent a unique candidate molecule to target simultaneously the Hippo, Wnt and TGF beta pathways.

TGF beta signaling = assay: TGF beta pathway luciferase reporter in 293 cells; assay type: cell-based; conditions: 24 hours
Procedure: as §1, §2

TAZ = assay: Western blot of Hippo pathway transducers: TAZ; assay type: cell-based
Excerpt: (§3) FIGS. 2A-2D. Putative mechanism. FIG. 2A. Effect of CPADAML16 on Hippo pathway transduces YAP, TAZ and TEAD measured by Western blot. FIG. 2B. Possible signaling pathways leading to degradation of TAZ. The effects of CPADAML16 on the Mst/Lats kinases and the Akt/GSK3 beta axis are shown in FIGS. 2C and 2D, respectively.
(§4) There are three possibilities by which this might occur (FIG. 2B): 1) through activation Mst/Lats, 2) inhibition of Akt or 3) activation of AMPK. […] In light of recent findings that TAZ is also target of the GSK3 beta associated destruction complex, we reasoned that CPADAML16 may act directly or indirectly to activate this complex. […] These effects were concentration and time dependent and valid in various cell lines […]. […] Together these findings identified AMPK as a novel target of CPADAML16, shedding light on a new mechanism by which this compound could signal for TAZ degradation and inhibition of Hippo signaling.

YAP = assay: Western blot of Hippo pathway transducers: YAP; assay type: cell-based
Excerpt: as §3, §4

TEAD = assay: Western blot of Hippo pathway transducers: TEAD; assay type: cell-based
Excerpt: as §3, §4

MST1 = assay: Activation (phosphorylation) of Hippo core kinase MST1; assay type: cell-based
Excerpt: as §3, §4

Lats1 = assay: Activation (phosphorylation) of Hippo core kinase Lats1; assay type: cell-based
Excerpt: as §3, §4

GSK3 beta = assay: Phosphorylation of GSK3; assay type: cell-based; conditions: inhibited phosphorylation = induced activation
Excerpt: as §3, §4

Akt = assay: Phosphorylation of Akt; assay type: cell-based
Excerpt: as §3, §4

AMPK = assay: Phosphorylation of AMPK at threonine 172; assay type: cell-based
Excerpt: FIGS. 3A-3G. Effect of CPADAML16 on […]. FIGS. 3A and 3B. Dose and time dependent effects of CPADAML16 on phosphorylation of AMPK. FIG. 3C. Effect of AICAR on phosphorylation of AMPK. FIG. 3D. Effect of CPADAML16 on phosphorylation of AMPK downstream target ACC. FIGS. 3E-3G. Confirmation CPADAML16-induced AMPK phosphorylation in different cell lines.
as §4

cell migration = assay: Cell monolayer scratch, cell migration; assay type: cell-based
Procedure: (§5) FIGS. 4A-4C. Inhibition of cell migration, proliferation and resistance to therapy by CPADAML16. FIG. 4A. Cell monolayer scratch depicting inhibition of cell migration by CPADAML16. FIG. 4B. Effect on cell proliferation measured after 5 days of incubation. FIG. 4C. Cell response to doxorubicin was measured in the presence and absence of CPADAML16. Data in FIG. 4C represent average of three determinations ±SE.

[1] = test system: three melanoma and one breast cancer cell lines; assay: Cell proliferation after 5 days of incubation; assay type: cell-based
Procedure: as §5

melanoma cell = assay: Cell response to doxorubicin with and without compound; assay type: cell-based
Procedure: as §5

melanoma cells WM266 = assay: Anti-tumor activity in mice bearing xenograft tumors; assay type: in vivo, nude mice (strain CD1); conditions: 20 mg/Kg, 3 injections, end of experiment
Procedure: (§6) FIGS. 5A-5B. Effect of CPADAML16 (20 mg/kg) on tumor growth (FIG. 5A) and body weight (FIG. 5B). Data represents 7 replicates ±SE.
(§7) Experiments were carried out to analyse the anti-tumor activity and safety of CPADAML16 in mice bearing xenograft tumors. For this, nude mice (strain CD1) were sub-cutaneously inoculated with melanoma cells WM266 and after tumors became palpable, they were randomized into control and treatment groups and received 3 injections (starting on day 15 and separated by three days) of vehicle (control group) or CPADAML16 dissolved in the vehicle solution (treatment groups). Tumor volumes and body weight were measured and mice evaluated for signs of toxicity on a daily basis. At the end of experiments, the animals were sacrificed and tumors harvested to determine if molecular targets of CPADAML16 were altered.

[2] = Body weight and signs of toxicity in xenograft mice; assay type: in vivo, nude mice (strain CD1); conditions: WM266 xenograft mice
Procedure: as §6, §7

CCCCCOc1ccccc1C(=O)c1cc(C(=O)OCC)c(=O)n(Cc2ccccc2)c1 [CPADAML16, 3-Ethoxycarbonyl-5-(o-pentyloxybenzoyl)-1-(benzyl)pyridin-2-one]
Hippo pathway reporter luciferase activity (Hippo pathway): remarkable inhibitory activity | Wnt signaling reporter luciferase activity (Wnt signaling): remarkably inhibited | TGF beta signaling reporter luciferase activity (TGF beta signaling): remarkably inhibited | Taz levels (TAZ): reduced in a concentration dependent manner | YAP levels (YAP): largely unaltered | TEAD levels (TEAD): largely unaltered | phosphorylation of MST1 (MST1): did not affected phosphorylation | phosphorylation of Lats1 (Lats1): did not affected phosphorylation | phosphorylation of GSK3 (GSK3 beta): inhibited phosphorylation | phosphorylation of Akt (Akt): not due to reduced phosphorylation of Akt | potency of AMPK activation compared with AICAR (AMPK): more potent than AICAR | phosphorylation of AMPK at threonine 172 (AMPK; concentration and time dependent, various cell lines): strongly induced phosphorylation | cell migration (cell migration): strongly inhibits | proliferation [1]: strongly inhibits | melanoma cell response to doxorubicin in the presence of the compound (melanoma cell): significantly enhanced | tumor growth inhibition (melanoma cells WM266): about 90% | body weight ([2]; 20 mg/kg): did not change significantly | health / signs of toxicity ([2]; evaluated daily): in good health throughout the experiment
